According to article PMC6925632 (Cell chemical biology, 2019):

Key:
GPER over ERα = details: ref Dennis et al., 2011; cited from earlier work
FOXO3a-GFP = assay: FOXO3a translocation in MCF-7 cells; details: E2 10 nM, G-1 100 nM, AB-1 1 μM, EGF 50 ng/mL
ERα over ERβ = details: ref Stauffer et al., 2000; cited from earlier work
[1] = system: uterus of ovariectomized mice; assay: Mouse uterine estrogenicity: uterine wet weight; type: in vivo; details: dose of 10 ng; subcutaneous; 18 h
ERβ-GFP [2] = system: ERβ-GFP
ERβ-GFP [3] = details: COS7 cells; 1 nM E2 or 1 μM AB-1
ERβ-GFP [4] = details: COS7 cells; 1 nM E2 or 1 μM AB-1; 15 min
ERα = biological target: T1, ERα (Homo sapiens, UniProt P03372); details: MCF-7 cells; 24 h; Western blot
T1 sequence (P03372 1-595): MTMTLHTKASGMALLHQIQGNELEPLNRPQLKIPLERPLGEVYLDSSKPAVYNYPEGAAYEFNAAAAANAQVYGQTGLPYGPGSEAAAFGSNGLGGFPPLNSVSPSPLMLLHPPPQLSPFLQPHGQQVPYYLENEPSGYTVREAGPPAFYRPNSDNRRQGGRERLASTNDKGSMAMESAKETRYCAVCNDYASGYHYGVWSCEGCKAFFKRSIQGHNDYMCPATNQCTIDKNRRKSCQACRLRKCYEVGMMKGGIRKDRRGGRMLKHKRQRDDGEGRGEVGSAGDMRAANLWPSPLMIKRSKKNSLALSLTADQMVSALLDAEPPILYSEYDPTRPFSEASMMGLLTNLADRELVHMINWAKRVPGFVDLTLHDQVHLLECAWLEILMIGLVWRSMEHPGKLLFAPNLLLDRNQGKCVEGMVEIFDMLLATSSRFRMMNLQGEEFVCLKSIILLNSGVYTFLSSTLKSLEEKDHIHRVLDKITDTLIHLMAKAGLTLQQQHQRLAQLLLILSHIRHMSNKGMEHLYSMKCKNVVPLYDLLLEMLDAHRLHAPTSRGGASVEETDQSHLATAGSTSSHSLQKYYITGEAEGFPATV

CC(=O)c1ccc2c(c1)[C@@H]1C=CC[C@@H]1[C@H](c1cc3c(cc1Br)OCO3)N2 [G-1]
Selectivity for GPER over ERα (GPER over ERα): > 10^5 fold
FOXO3a translocation from nucleus to cytoplasm (FOXO3a-GFP): stimulated cytosolic translocation

CCCc1c(-c2ccc(O)cc2)nn(-c2ccc(O)cc2)c1-c1ccc(O)cc1 [PPT]
Selectivity for ERα over ERβ (ERα over ERβ): about 400 fold

C[C@]12CC[C@@H]3c4ccc(O)cc4CC[C@H]3[C@@H]1CC[C@@H]2O [E2, 17β-estradiol]
Imbibition response [1]: strong imbibition response
Block of E2-Alexa633 binding to ERβ-GFP (confocal) (ERβ-GFP [2]): blocked binding of E2-Alexa633
Induction of calcium mobilization, ERβ (ERβ-GFP [3]): induced rapid calcium mobilization
PI3K activation (nuclear translocation of PH-mRFP1), ERβ (ERβ-GFP [4]): induced strong nuclear localization of the PH-mRFP1 reporter
FOXO3a translocation from nucleus to cytoplasm (FOXO3a-GFP): stimulated cytosolic translocation

EGF: growth factor that stimulates the PI3K pathway (NSDSECPLSHDGYCLHDGVCMYIEALDKYACNCVVGYIGERCQYRDLKWWELR; UniProt P01133 971-1023, looked up)
FOXO3a translocation from nucleus to cytoplasm (FOXO3a-GFP): translocated from the nucleus to the cytoplasm

C[C@]12CC[C@@H]3c4ccc(O)cc4C[C@@H](CCCCCCCCC[S+]([O-])CCCC(F)(F)C(F)(F)F)[C@H]3[C@@H]1CC[C@@H]2O (stereo partly shown) [ICI182,780]
Effect on ERα levels (ERα): potently decreased
